In patent publication US8889688B2, “Piperazines as antimalarial agents” (Actelion Pharmaceuticals Ltd., priority 2011, dated 2014) one finds IC50 and inhibition in vivo data, which are given here for seven molecules.

Like-named read-outs stand apart in the source and are kept apart here.

The test system of test [1] is erythrocytic stages of P. falciparum NF54. Description: Plasmodium falciparum in vitro assay, [3H] hypoxanthine incorporation. The class given is cell-based. Conditions: Plasmodium falciparum, Erythrocyte, 72 h, P. falciparum NF54 in human red blood cells, 48 h + 24 h incubation. Put shortly:
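Cultures in human red blood cells (2.5% hematocrit, 0.3% parasitemia) were exposed to serially diluted compounds for 48 h at 37° C. under 4% CO2, 3% O2, 93% N2. [3H] hypoxanthine (0.5 μCi) was added for a further 24 h, incorporation counted by scintillation, and IC50 derived from sigmoidal inhibition curves.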

Test [2] has as its system P. berghei strain GFP-ANKA. Description: In vivo antimalarial efficacy study in infected NMRI mice. Conditions: Plasmodium berghei; female NMRI mice infected with P. berghei GFP-ANKA; single oral dose of 100 mg/kg 24 h after infection; parasitemia 48 h after drug treatment (day 3); read-out: Activity (inhibition of parasitemia) expressed as a percent relative to the control group. Summed up:
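Female NMRI mice, in groups of three, were infected i.v. on day 0 with 2×10^7 P. berghei GFP-ANKA parasitized erythrocytes. At 24 h they received one oral 100 mg/kg dose in Tween 80/ethanol (7%/3%). Parasitemia was counted by FACS on day 3, and activity was given as percent reduction versus controls.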

[3] abbreviates: screening medium with Albumax (5 g/L), read-out: IC50 on NF54 (with Albumax).
The mark [4] stands for this setting: screening medium with human serum (50% final concentration), read-out: IC50 on NF54 (with 50% Serum).

`CC(=O)N1CCN(c2ccc(CN(C(=O)C=Cc3ccc(C(C)(C)C)cc3)[C@@H](Cc3ccccc3)C(=O)N3CCN(Cc4ccccc4)CC3)cc2)CC1` [Example 3, (S)-N-[4-(4-Acetyl-piperazin-1-yl)-benzyl]-N-[1-benzyl-2-(4-benzyl-piperazin-1-yl)-2-oxo-ethyl]-3-(4-tert-butyl-phenyl)-acrylamide]: the figures for the half-maximal inhibitory concentration (IC50) in test [1] (setting [3]) and in test [1] (setting [4]) were 1.9 nM and 8.5 nM, respectively. The inhibition in vivo at 100 mg/kg in test [2] amounted to 98.7%.
The like results for `CCc1ccc(C=CC(=O)N(Cc2ccc(N3CCN(C(C)=O)CC3)cc2)[C@@H](Cc2ccccc2)C(=O)N2CCN(Cc3ccc(Cl)cc3)CC2)cc1` [Example 40, (S)-N-[4-(4-Acetyl-piperazin-1-yl)-benzyl]-N-{1-benzyl-2-[4-(4-chloro-benzyl)-piperazin-1-yl]-2-oxo-ethyl}-3-(4-ethyl-phenyl)-acrylamide] were, in that order, 1.7 nM, 10.5 nM and 93.6%.
On the same counts, the results for `CC(=O)Nc1ccc(C=CC(=O)N(Cc2ccc(N3CCN(C(C)=O)CC3)cc2)[C@@H](Cc2ccccc2)C(=O)N2CCN(Cc3ccccc3)CC2)cc1` [Example 7, (S)-3-(4-Acetylamino-phenyl)-N-[4-(4-acetyl-piperazin-1-yl)benzyl]-N-[1-benzyl-2-(4-benzyl-piperazin-1-yl)-2-oxo-ethyl]-acrylamide] are 3.1 nM, 40 nM and 44.7%.
On the same counts, the results for `CC(=O)N1CCN(c2ccc(CN(C(=O)C=Cc3ccc(OC(C)C)cc3)[C@@H](Cc3ccccc3)C(=O)N3CCN(Cc4ccc(S(C)(=O)=O)cc4)CC3)cc2)CC1` [Example 44, (S)-N-[4-(4-Acetyl-piperazin-1-yl)-benzyl]-N-{1-benzyl-2-[4-(4-(methylsulfonyl)-benzyl)-piperazin-1-yl]-2-oxo-ethyl}-3-(4-isopropoxyphenyl)-acrylamide] are 0.4 nM, 2.8 nM and 99%.
For the molecule `COc1ccc(C=CC(=O)N(Cc2ccc(N3CCN(C(C)=O)CC3)cc2)[C@@H](Cc2ccccc2)C(=O)N2CCN(Cc3ccc(N(C)CCO)cc3)CC2)cn1` [Example 52, (S)-N-[4-(4-Acetyl-piperazin-1-yl)-benzyl]-N-[1-benzyl-2-(4-{4-[(2-hydroxy-ethyl)-methyl-amino]-benzyl}-piperazin-1-yl)-2-oxo-ethyl]-3-(6-methoxy-pyridin-3-yl)-acrylamide], the figures for the IC50 in test [1] (setting [3]) and in test [1] (setting [4]) were 10 nM and 33 nM, respectively. In addition, in test [2], the inhibition in vivo at 100 mg/kg was < 40%.
`CCCOc1ccc(C=CC(=O)N(Cc2ccc(N3CCN(C(C)=O)CC3)cc2)[C@@H](Cc2ccccc2)C(=O)N2CCN(Cc3ccc(S(=O)(=O)CC)cc3)CC2)cc1` [Example 48, (S)-N-[4-(4-Acetyl-piperazin-1-yl)-benzyl]-N-{1-benzyl-2-[4-(4-(ethylsulfonyl)-benzyl)-piperazin-1-yl]-2-oxo-ethyl}-3-(4-propoxyphenyl)-acrylamide]: the IC50 (in general, the midpoint of a concentration-inhibition curve) in test [1] (setting [3]) was 0.5 nM; in test [1] (setting [4]), 1.6 nM. The inhibition in vivo at 100 mg/kg in test [2] was 99%.
On the same counts, the results for `CCc1ccc(C=CC(=O)N(Cc2ccc(N3CCN(C(C)=O)CC3)cc2)[C@@H](Cc2ccccc2)C(=O)N2CCN(Cc3ccccc3)CC2)cc1` [Example 2, (S)-N-[4-(4-Acetyl-piperazin-1-yl)-benzyl]-N-[1-benzyl-2-(4-benzyl-piperazin-1-yl)-2-oxo-ethyl]-3-(4-ethyl-phenyl)-acrylamide] are 2 nM, 10 nM and 94.1%.
